Assays:
PDGF-R = PDGF-R expression by Western blot, PANC-1; assay type: cell-based, human; conditions: 150 μM, 24 hours
IGF1-R [1] = assay: IGF1-R expression by Western immunoblotting, PANC-1; assay type: cell-based, human; conditions: 150 μM, 24 hours, vs untreated control
Description: PANC-1 cells were cultured for 24 hours in MEM+10% FBS and treated with 150 μM Asc-S for 24 hours, Asc-S treated and untreated (control). PANC-1 cells were analyzed by Western immunoblotting as follows: Cell lysates of treated and non-treated PANC-1 cells were obtained. The lysates were sonicated, centrifuged and protein concentration was determined with Pierce BCA protein kit (Pierce Laboratories). A 20 μg of protein was loaded and resolved at 4% to 15% polyacrylamide gradient gel by sodium dodecyl sulfate-polyacrylamide gel electrophoresis (SDS-PAGE) and electroblotted onto a nitrocellulose membrane […]. The membrane was immunoblotted with mouse anti-human IGF1-R antibodies to cross-react the 85 kDa β-subunit of the IGF1-R (Pharmingen, San Diego, Calif.) followed by anti-mouse horseradish peroxidase conjugated secondary antibody (ECL, Amersham Corporation, Arlington Heights, Ill.). Antigen bound to nitrocellulose membrane was detected with the ECL system (Amersham Corporation, Arlington Heights, Ill.). P6 cells (3T3 fibroblast cells, transfected with a CVN plasmid constituitively expressing human IGF1-R) were used as the positive control.
In additional experiments PANC-1 cells were cultured in MEM+10% FBS and treated with different concentrations of Asc-S (e.g. 50, 75, 100, 125, 150 and 200 μM) for 24 hours. […]

IGF1-R [2] = assay: IGF1-R expression by Western blotting, PC-1; assay type: cell-based, hamster; conditions: 150 μM, 24 hours, vs untreated control
Description: This inhibition was dose and time dependent. In fact the exposure of PANC-1 cells to different concentrations of Asc-S (e.g. 50, 75, 100, 125, 150, and 200 μM) for 24 hours in the same conditions, inhibited IGF1-R expression in a dose dependent fashion (FIG. 2A).
(§1) The effect of Asc-S on the proliferation of PC-1 and PANC-1 pancreatic tumor cells was studied using MTT assay. The expression of IGF1-R was analyzed by Western blot analysis, using polyclonal IGF1-R antibody (Upstate Biotech). Apoptosis was assessed by in situ hybridization using TUNEL reaction. […] This was associated with significant decrease in IGF1-R expression and increased apoptotic rate as compared to the control. Statistical analysis on the MTT assay was done using Student's T-test.

PC-1 cells = assay: MTT cell growth and viability assay, PC-1; assay type: cell-based, hamster; conditions: different concentrations of Asc-S, 24 hours
Description: Cell Growth and Vitality: The effect of Asc-S on PANC-1 and PC-1 cell growth and viability was evaluated by 3-(4,5-dimethylthiazol-2yl)-2,5-diphenyl-tetrazoliumbromide (MTT) (Sigma Chemical Co., St. Louis, Md.) assay and the details of the procedure are as described earlier (Naidu et al., 1993a) PANC-1 cells were seeded at 2.5×10^4 viable cells well in 0.1 ml MEM supplemented with 10% FBS or serum free MEM with 15 nM human recombinant IGF-1 in 96 multiwell tissue culture plates. The following day when the cells were nearly confluent, the medium was replaced with fresh medium and 50, 75, 100, 125, 150, 175 and 200 μM Asc-S were added and incubated in a CO2 incubator at 37° C. for 24 hours with respective untreated controls.
as §1

T98G cells = assay: MTT cell proliferation assay, T98G; assay type: cell-based, human; conditions: for inhibition at 50 µM / inhibition at 100 µM / inhibition at 175 µM: Homo sapiens, T98G
Description: T98G cell proliferation: Murine (G26) and human glioma (U-373) cell proliferation was inhibited following exposure to ascorbyl esters (Naidu et al., 1993a and 1993b). The cell proliferation was assessed by [^3H] thymidine incorporation and MTT assay (Naidu et al., 1993a, 1993b and 1996). […] The T98G cells were cultured for 24 hours in MEM+10% FBS, and, when confluent, were treated with 0 (untreated control), 50, 75, 100, 125, 150 and 175 μM Asc-S. Appropriate untreated controls were included. The cell proliferation was measured by MTT assay.

rat astrocyte cells = assay: Apoptosis by in situ TUNEL assay, rat astrocytes in primary culture; assay type: cell-based; conditions: 100 μM, 24 hours, vs untreated astrocytes
Description: Apoptosis by in situ TUNNEL assay: This experiment was designed to test the hypothesis that down regulation of IGF1-R facilitates apoptosis in T98G cells. […] In addition, to test whether Asc-S treatment induces apoptosis in normal cells, rat astrocyte cells in primary culture were treated with 100 μM Asc-S for 24 hours. […] The increased apoptosis in the Asc-S treated T98G cells is due to down regulation of IGF1-R.
In FIG. 10, apoptosis was evaluated by in situ immunohistochemical detection and quantification at a single cell level.

CCCCCCCCCCCCCCCCCC(=O)OC[C@H](O)[C@H]1OC(=O)C(O)=C1O [Asc-S, Ascorbyl stearate]
PDGF-R expression, PANC-1 (PDGF-R): did not affect | IGF1-R expression, PANC-1 cells (Western blotting) (IGF1-R [1]): significantly lower number of receptors | IGF1-R expression, PC-1 cells (Western blotting) (IGF1-R [2]): significantly lower number of receptors | PC-1 cell proliferation (MTT assay) (PC-1 cells): dose dependent inhibition of PC-1 cell proliferation | T98G cell proliferation (MTT assay) (T98G cells; 50-175 μM Asc-S, 24 hours): inhibited cell proliferation in a dose dependent manner | inhibition at 50 µM (T98G cells; cultured with FBS, 50 μM): 8.7% | inhibition at 100 µM (T98G cells; cultured with FBS, 100 μM): 38.5% | inhibition at 175 µM (T98G cells; cultured with FBS, 175 μM): 87.2% | inhibition at 50 µM (T98G cells; with IGF-1, 50 μM): 15.3% | inhibition at 100 µM (T98G cells; with IGF-1, 100 μM): 54.2% | inhibition at 175 µM (T98G cells; with IGF-1, 175 μM): 87.7% | apoptotic rate (in situ TUNEL), rat astrocytes (rat astrocyte cells): did not increase the apoptotic rate

— patent US6638974B1, “Ascorbyl esters for the treatment of cancer” (University of South Florida, priority 1999, dated 2003)
